The results in this text go back to ChEMBL document CHEMBL1201862, “PubChem BioAssay data set” (2004).

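The compound was tested at five concentrations on cells cultured in 96-well plates, with a 48-hour exposure period. Here, GI50 denotes the concentration required for 50% inhibition of growth.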 Calls of active or inactive are those of the source. Cut-off read from the data, not from the text of the source: active = GI50 up to about 1.1 µM and inactive = higher.

Holding throughout (test): NCI tumour cell line growth inhibition, 48 h
The subject of test [1] is NCI-H226.
In test [2] the test system is TK-10.
In test [3] the test system is OVCAR-5.
Test [4] concerns A549.
For test [5], the system named is NCI-H522.
Test [6] relates to HL-60.
In test [7] the test system is SF-295.
Test [8] has as its system HOP-92.
Test [9] relates to U-251.
Test [10] concerns DLD-1.
In test [11] the test system is SF-268.
For test [12], the system named is IGROV-1.
Test [13] deals with HT-29.
Test [14] deals with M14.
The test system of test [15] is Malme-3M.
Test [16] relates to UACC-62.
Test [17] relates to CAKI-1.
The subject of test [18] is SR.
The subject of test [19] is MDA-MB-231.
In test [20] the test system is RXF 393.

As for `c1ccc(CSc2nc3ccccc3nc2-c2cccs2)cc1`, the GI50 is > 100 µM (inactive) in test [1]; > 100 µM (inactive) in [2]; > 100 µM (inactive) in test [3]; > 100 µM (inactive) in test [4]; 41.3 µM (inactive) in [5]; > 100 µM (inactive) in [6]. Also, the GI50 in test [7], in [8], in [9], in [10], in test [11] and in test [12] was > 100 µM (inactive) throughout. Moreover, the GI50 in test [13], in [14] and in [15] was > 100 µM (inactive) throughout.

On to `CC(Oc1ccc(OCC2CCCCC2)cc1)C(N)=O` (stereo not given), for which the GI50 is > 100 µM (inactive) in test [1]; > 100 µM (inactive) in test [2]; > 100 µM (inactive) in test [4]; 87.9 µM (inactive) in test [5]; > 100 µM (inactive) in test [6]; > 100 µM (inactive) in [7]. Also, the GI50 in test [9], in test [10], in [11], in [16], in test [13] and in test [14] was > 100 µM (inactive) in each case. In addition, the GI50 in test [15] is > 100 µM (inactive).

Regarding `C[C@@H]1CC[C@@]2(OC1)O[C@H]1C[C@H]3[C@@H]4CC[C@H]5C[C@@H](OC6OC(CO)C(OC7OC(CO)C(O)C(OC8OCC(O)C(O)C8O)C7OC7OC(CO)C(O)C(O)C7O)C(O)C6O)[C@H](O)C[C@]5(C)[C@H]4CC[C@]3(C)[C@H]1[C@@H]2C` (stereo not given in full), the GI50 in [17] was 2.21 µM (inactive); in test [1], 6.47 µM (inactive); in test [2], 4.36 µM (inactive); in [3] it was 4.76 µM (inactive); in [4] it was 0.855 µM (active); in [5], 0.426 µM (active). For the same compound, the GI50 in test [6] was 1.49 µM (inactive); in [7], 3.89 µM (inactive); in test [8], 23.6 µM (inactive); in [9], 3.13 µM (inactive); in test [11] it was 7.71 µM (inactive); in test [18] it was 14.3 µM (inactive). Moreover, the GI50 in [16] was 20 µM (inactive); in [12] it was 2.16 µM (inactive); in test [19], 1.76 µM (inactive); in test [13], 1.75 µM (inactive); in [20], 9.98 µM (inactive); in test [14] it was 15.2 µM (inactive). Moreover, the GI50 in test [15] is 15.2 µM (inactive).

With `COC(=O)c1nc2c3c(cccc3c1C(=O)OC)Nc1ccccc1-2`, the GI50 in [17] was 50.2 µM (inactive); in test [1], 65.3 µM (inactive); in test [2] it was 40.9 µM (inactive); in [3], > 100 µM (inactive); in test [4], 35.6 µM (inactive); in test [5], 10.7 µM (inactive). In addition, the GI50 in [6] is 53 µM (inactive); in test [7], 21.1 µM (inactive); in test [8], 16.9 µM (inactive); in test [9], 32.1 µM (inactive); in test [11] it was 38.5 µM (inactive); in test [18], 78.3 µM (inactive). The GI50 in test [16] is 10.7 µM (inactive); in [12], 32 µM (inactive); in test [19], 23.8 µM (inactive); in test [13], 34.8 µM (inactive); in test [20], 35.7 µM (inactive); in [14], 44.8 µM (inactive). For the same compound, in test [15], the GI50 was 29.2 µM (inactive).

Consider `CC1(C)CCC2(C(=O)OC3OC(CO)C(O)C(O)C3O)CCC3(CO)C(=CCC4C5(C)CC(O)C(O)C(C)(C(=O)OC6OC(CO)C(O)C(O)C6O)C5CCC43C)C2C1` (stereo not given), for which the GI50 in test [17], in test [1], in [2], in test [3], in [4] and in test [5] was > 100 µM (inactive) in each case. Also, the GI50 in test [6] was 39 µM (inactive); in [7], > 100 µM (inactive); in test [8], > 100 µM (inactive); in test [9], > 100 µM (inactive); in test [11], > 100 µM (inactive); in [18], 44.8 µM (inactive). In addition, the GI50 in [16], in test [12], in [19], in test [13], in test [20] and in test [14] was > 100 µM (inactive) throughout. In addition, the GI50 in test [15] is > 100 µM (inactive).

Turning to `Cn1c(=O)c2c(ncn2CN2CCN(Cn3cnc4c3c(=O)n(C)c(=O)n4C)CC2)n(C)c1=O`, the GI50 was 77.3 µM (inactive) in test [17]; > 100 µM (inactive) in test [1]; 21.5 µM (inactive) in [2]; > 100 µM (inactive) in test [3]; 34.2 µM (inactive) in [4]; 44.7 µM (inactive) in test [5]. In addition, the GI50 is 23 µM (inactive) in test [6]; > 100 µM (inactive) in [7]; 52 µM (inactive) in test [8]; > 100 µM (inactive) in test [9]; 50.9 µM (inactive) in test [11]; 28.6 µM (inactive) in [18]. Besides, the GI50 in test [16] is 45.7 µM (inactive); in [12], 78.5 µM (inactive); in test [19], > 100 µM (inactive); in test [13], 26.2 µM (inactive); in test [20], 20.2 µM (inactive); in test [14], 38.5 µM (inactive). In addition, the GI50 in test [15] was 73.6 µM (inactive).

As for `O=C1CCC(=O)C12CCc1ccccc12`, the GI50 in [17], in [2], in test [4], in test [6], in test [7] and in [8] was > 100 µM (inactive) each time. For the same compound, the GI50 in test [9], in test [10], in test [11], in [16], in test [12] and in test [13] was > 100 µM (inactive) in each case. The GI50 in [20], in test [14] and in test [15] was > 100 µM (inactive) each time.

For the compound `Clc1ccc2c(NCCCCN3OC3c3ccccc3)ccnc2c1` (stereo not given), the GI50 is 8.77 µM (inactive) in test [17]; 18.4 µM (inactive) in [1]; 10.3 µM (inactive) in test [2]; 14.4 µM (inactive) in test [3]; 5.62 µM (inactive) in test [4]; 6.41 µM (inactive) in [5]. The GI50 is < 0.01 µM (active) in test [6]; 12.2 µM (inactive) in test [7]; 10.5 µM (inactive) in test [8]; 3.4 µM (inactive) in [9]; 8.07 µM (inactive) in test [11]; 1.69 µM (inactive) in test [18]. For the same compound, the GI50 was 14.1 µM (inactive) in [16]; 9.27 µM (inactive) in [12]; 2.27 µM (inactive) in test [19]; 3.16 µM (inactive) in [13]; 5.55 µM (inactive) in test [20]; 3.23 µM (inactive) in test [14]. In addition, the GI50 in test [15] is 8.41 µM (inactive).

On to `COc1ccc(/N=N\c2c(N)nn3c(SC)c(C#N)c(N)nc23)cc1`, for which the GI50 in [17] is 10.9 µM (inactive); in test [1], 21.4 µM (inactive); in [2], 19.1 µM (inactive); in test [3], 17.6 µM (inactive); in test [4] it was 18 µM (inactive); in [5], 16.5 µM (inactive). Besides, the GI50 in test [6] is 2.71 µM (inactive); in [7], 19.9 µM (inactive); in [8], 9.4 µM (inactive); in [9] it was 5.43 µM (inactive); in test [11], 3.21 µM (inactive); in test [18] it was 2.44 µM (inactive). Moreover, the GI50 in test [16] is 5.71 µM (inactive); in test [12], 1.82 µM (inactive); in test [19], 2.32 µM (inactive); in test [13], 9.75 µM (inactive); in [20] it was 6.47 µM (inactive); in [14], 12.6 µM (inactive). The GI50 in [15] is 16.2 µM (inactive).

For `C/C(Cl)=N\OC(=O)Nc1ccc([N+](=O)[O-])cc1`, the GI50 in test [17] is 5.21 µM (inactive); in test [1], > 100 µM (inactive); in [2], 14.7 µM (inactive); in [3], 16.4 µM (inactive); in [4] it was 21.6 µM (inactive); in test [5], 1.99 µM (inactive). Also, the GI50 in test [6] was 1.82 µM (inactive); in test [7], 16.8 µM (inactive); in [8], 2.59 µM (inactive); in test [9], 17.6 µM (inactive); in test [11], 21 µM (inactive); in [18], 6.79 µM (inactive). The GI50 in test [16] was 22.2 µM (inactive); in test [12] it was 17.5 µM (inactive); in [19], 18.7 µM (inactive); in [13], 9.71 µM (inactive); in test [20], 16.8 µM (inactive); in test [14] it was 12.9 µM (inactive). Also, the GI50 in test [15] was 3.01 µM (inactive).

Consider `C=C1c2nc3ccccc3n2C=C(c2ccc(Cl)cc2)N1c1ccc(OCCN2CCCCC2)cc1`, for which the GI50 in [17] is > 45 µM (inactive); in [1] it was > 100 µM (inactive); in [2] it was > 45 µM (inactive); in test [3] it was > 45 µM (inactive); in test [4] it was > 45 µM (inactive); in test [5], 14.8 µM (inactive). Further, the GI50 is 5.01 µM (inactive) in test [6]; > 45 µM (inactive) in [7]; > 45 µM (inactive) in test [8]; > 45 µM (inactive) in [9]; 1.63 µM (inactive) in test [11]; > 45 µM (inactive) in test [18]. The GI50 in [16], in test [12], in test [19], in test [13], in test [20] and in [14] was > 45 µM (inactive) throughout. Also, the GI50 in test [15] was 8.41 µM (inactive).
